Test results from patent publication US10703746B2, “Mutant IDH1 inhibitors useful for treating cancer” (THE UNITED STATES OF AMERICA, AS REPRESENTED BY THE …, priority 2014, dated 2020).

Experiments:
IDH1 R132C = IDH1 R132C (Homo sapiens, UniProt O75874, R132C); assay: IDH1 R132C enzymatic assay (NADPH depletion coupled to diaphorase/resazurin); format: biochemical; conditions: IDH1 R132C enzymatic inhibition, IC50 class
Protocol: (§1) Assays were conducted in a 1536-well black solid-bottom plate with a final assay volume of 9 μL.
For IDH1 R132C, 3 μL of enzyme (0.00032 mg/mL IDH1 […], 10% glycerol, 50 mM potassium phosphate pH 6.5, 5 mM MgCl2, 0.03% BSA) were added to the plate, followed by the addition of 23 nL of test compound in DMSO. The plate was lidded and incubated at room temperature for 30 minutes at which time 3 μL of substrate were added (0.012 mM NADPH, 0.6 mM α-KG, 10% glycerol, 50 mM potassium phosphate pH 6.5, 5 mM MgCl2, 0.03% BSA). […]

IDH1 R132H = IDH1 R132H (Homo sapiens, UniProt O75874, R132H); assay: IDH1 R132H enzymatic assay (NADPH depletion coupled to diaphorase/resazurin); format: biochemical; conditions: IDH1 R132H enzymatic inhibition, IC50 class
Protocol: as §1
Specifically, for IDH1 R132H, 3 μL of enzyme (4 mM β-ME, 0.0005 mg/mL IDH1 R132H, 150 mM NaCl, 20 mM Tris pH 7.5, 10 mM MgCl2, 0.05% BSA) were added to the plate, followed by the addition of 23 nL of test compound in DMSO. The plate was lidded and incubated at room temperature for 30 minutes at which time 3 μL of substrate were added (0.016 mM NADPH, 2 mM α-KG, 150 mM NaCl, 20 mM Tris pH 7.5, 10 mM MgCl2, 0.05% BSA). This reaction was incubated at room-temperature for 60 minutes at which time the detection mix was added (0.06 mg/mL diaphorase, 0.036 mM resazurin, 150 mM NaCl, 20 mM Tris pH 7.5, 10 mM MgCl2, 0.05% BSA). […]

Chain of IDH1 R132H (O75874 whole entry R132H): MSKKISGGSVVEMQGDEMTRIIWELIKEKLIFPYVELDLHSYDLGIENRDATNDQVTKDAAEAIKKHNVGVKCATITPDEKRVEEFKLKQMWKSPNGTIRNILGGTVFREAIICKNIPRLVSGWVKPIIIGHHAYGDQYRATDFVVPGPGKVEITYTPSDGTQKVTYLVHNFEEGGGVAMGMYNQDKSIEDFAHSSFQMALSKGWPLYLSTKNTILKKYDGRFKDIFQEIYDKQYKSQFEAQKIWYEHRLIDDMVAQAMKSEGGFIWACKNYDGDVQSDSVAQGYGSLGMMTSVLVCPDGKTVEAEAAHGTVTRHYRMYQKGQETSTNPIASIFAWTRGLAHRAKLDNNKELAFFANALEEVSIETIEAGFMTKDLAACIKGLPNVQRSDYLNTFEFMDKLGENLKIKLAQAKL
Chain of IDH1 R132C (O75874 whole entry R132C): as the sequence (O75874 whole entry R132H) above, with H132C counted along it

CCc1cccc(CC)c1-n1c(CC(C)C)c(C(=O)N2CCNCC2)cc(-c2ccn(-c3ccccc3)n2)c1=O [Compound 104]
IC50 (IDH1 R132C): 1000 to 5000 nM | IC50 (IDH1 R132H): 1000 to 5000 nM

CC(=O)Nc1ccccc1-n1c2c(cc(-c3nc(-c4ccc(Cl)cc4)cs3)c1=O)C(=O)CC(C)(C)C2 [Compound 105]
IC50 (IDH1 R132C): 5000 to 20000 nM | IC50 (IDH1 R132H): 1000 to 5000 nM

CCc1cccc(CC)c1-n1c(C)c(C(=O)N2CCNC(CO)C2)cc(-c2nc(-c3ccc(Cl)cc3)cs2)c1=O (stereo not shown) [Compound 106]
IC50 (IDH1 R132C): 300 to 1000 nM | IC50 (IDH1 R132H): < 300 nM

CCc1cccc(CC)c1-n1c(CC(C)C)c(C(=O)N2CCNC(C)C2C)cc(-c2nc(-c3ccc(Cl)cc3)cs2)c1=O (stereo not shown) [Compound 107]
IC50 (IDH1 R132C): < 300 nM | IC50 (IDH1 R132H): 300 to 1000 nM

CCc1cccc(CC)c1-n1c(C)c(C(=O)NC)cc(-c2nc(-c3ccc(Cl)cc3)cs2)c1=O [Compound 108]
IC50 (IDH1 R132C): 1000 to 5000 nM | IC50 (IDH1 R132H): 1000 to 5000 nM

CCc1cccc(CC)c1-n1c(C)c(C(=O)N2CCC(C(=O)O)CC2)cc(-c2nc(-c3ccc(Cl)cc3)cs2)c1=O [Compound 109]
IC50 (IDH1 R132C): 5000 to 20000 nM | IC50 (IDH1 R132H): 1000 to 5000 nM

CCc1cccc(CC)c1-n1c(C)c(C(=O)N2CCOCC2)cc(-c2nc(-c3ccc(Cl)cc3)cs2)c1=O [Compound 110]
IC50 (IDH1 R132C): 1000 to 5000 nM | IC50 (IDH1 R132H): 1000 to 5000 nM

COc1ccc(OC)c(-n2c3c(cc(-c4cccc(-c5ccc(Cl)cc5)c4)c2=O)C(=O)CC(C)(C)C3)c1 [Compound 111]
IC50 (IDH1 R132C): 5000 to 20000 nM | IC50 (IDH1 R132H): > 20000 nM

CCc1cccc(CC)c1-n1c(CC(C)C)c(C(=O)N2C[C@@H](C)N[C@@H](C)C2)cc(-c2nc(-c3ccc(Cl)cc3)cs2)c1=O [Compound 112]
IC50 (IDH1 R132C): < 300 nM | IC50 (IDH1 R132H): 300 to 1000 nM

CCc1cccc(CC)c1-n1c(CC(C)C)c(C(=O)N2CC(C(=O)OC)NCC2C)cc(-c2nc(-c3ccc(Cl)cc3)cs2)c1=O (stereo not shown) [Compound 113]
IC50 (IDH1 R132C): 300 to 1000 nM | IC50 (IDH1 R132H): 1000 to 5000 nM

CCc1cccc(CC)c1-n1c(C)c(C(=O)NC2CCCNC2)cc(-c2nc(-c3ccc(Cl)cc3)cs2)c1=O (stereo not shown) [Compound 114]
IC50 (IDH1 R132C): 300 to 1000 nM | IC50 (IDH1 R132H): 1000 to 5000 nM

CC1(C)CC(=O)c2cc(-c3nc(-c4ccc(Cl)cc4)cs3)c(=O)n(-c3ccccc3CC(F)(F)F)c2C1 [Compound 115]
IC50 (IDH1 R132C): 300 to 1000 nM | IC50 (IDH1 R132H): 300 to 1000 nM

CCc1cccc(CC)c1-n1c(C)c(C(=O)NC2CCCCC2)cc(-c2nc(-c3ccc(Cl)cc3)cs2)c1=O [Compound 116]
IC50 (IDH1 R132C): 1000 to 5000 nM | IC50 (IDH1 R132H): > 20000 nM

CCc1cccc(CC)c1-n1c(CC(C)C)c(C(=O)N2CCNC(C(=O)OC)C2)cc(-c2nc(-c3ccc(Cl)cc3)cs2)c1=O (stereo not shown) [Compound 117]
IC50 (IDH1 R132C): < 300 nM | IC50 (IDH1 R132H): 1000 to 5000 nM

CCc1cccc(CC)c1-n1c(CC(C)C)c(C(=O)NC(C)CO)cc(-c2nc(-c3ccc(Cl)cc3)cs2)c1=O (stereo not shown) [Compound 118]
IC50 (IDH1 R132C): < 300 nM | IC50 (IDH1 R132H): 300 to 1000 nM

CCc1cccc(CC)c1-n1c2c(cc(-c3nc(-c4cccnc4)cs3)c1=O)C(=O)CC(C)(C)C2 [Compound 119]
IC50 (IDH1 R132C): 1000 to 5000 nM | IC50 (IDH1 R132H): 5000 to 20000 nM

COc1ccc(OC)c(-n2c3c(cc(-n4cc(-c5ccccc5)cn4)c2=O)C(=O)CC(C)(C)C3)c1 [Compound 120]
IC50 (IDH1 R132C): > 20000 nM | IC50 (IDH1 R132H): > 20000 nM

CC1(C)CC(=O)c2cc(-c3nc(-c4ccc(Cl)cc4)cs3)c(=O)n(-c3ccccn3)c2C1 [Compound 121]
IC50 (IDH1 R132C): 5000 to 20000 nM | IC50 (IDH1 R132H): 5000 to 20000 nM

COc1ccc(N)cc1-n1c2c(cc(-c3nc(-c4ccc(Cl)cc4)cs3)c1=O)C(=O)CC(C)(C)C2 [Compound 122]
IC50 (IDH1 R132C): 300 to 1000 nM | IC50 (IDH1 R132H): 1000 to 5000 nM

CCc1cccc(CC)c1-n1c(C)c(C(=O)NC(C)(C)C)cc(-c2nc(-c3ccc(Cl)cc3)cs2)c1=O [Compound 123]
IC50 (IDH1 R132C): 1000 to 5000 nM | IC50 (IDH1 R132H): 5000 to 20000 nM

COc1ccc(OC)c(-n2c3c(cc(-c4nc(C)cs4)c2=O)C(=O)CC(C)(C)C3)c1 [Compound 124]
IC50 (IDH1 R132C): 5000 to 20000 nM | IC50 (IDH1 R132H): > 20000 nM

CCc1cccc(CC)c1-n1c(C(C)C)c(C(=O)OC)cc(-c2nc(-c3ccc(Cl)cc3)cs2)c1=O [Compound 125]
IC50 (IDH1 R132C): 1000 to 5000 nM | IC50 (IDH1 R132H): 1000 to 5000 nM

CCc1cccc(CC)c1-n1c(CC(C)C)c(C(=O)NCC(O)C(F)(F)F)cc(-c2nc(-c3ccc(Cl)cc3)cs2)c1=O (stereo not shown) [Compound 127]
IC50 (IDH1 R132C): < 300 nM | IC50 (IDH1 R132H): 300 to 1000 nM
